Assay results from patent publication US10328087B2, “Formulations for solubilizing hormones” (TherapeuticsMD, Inc., priority 2015, dated 2019).
Marks after values point to notes of the source that are not given here.

How the values were obtained:
[1] = test system: ovariectomized female Crl:CD rats; assay: Transdermal progesterone opposing estradiol effects on uterus and vagina in ovariectomized rats; type: in vivo, rat; details: for Endometrial Gland Density, LSMean / Endometrial Gland Size, LSMean / Endometrial Height, LSMean / Luminal Epithelial Cell Height, LSMean / Number of Mitotic Figures, LSMean: Day 8, EST 3 μg/kg SC alone, or with 10 mg/kg SC Prog, or with 3.125 mg/kg Dermal Prog
Experimental: Transdermally delivered progesterone blocked growth-related estrogenic effects on the endometrium and vagina in ovariectomized rats.
Thirty-two 8-week-old female Crl:CD® rats underwent ovariectomy 2 weeks prior to the start of the study. Rats were then randomly assigned to 4 groups of 8 rats each and dosed according to the schedule in Table 4. Control animals were dosed with saline or vehicle as noted. Two hours after the final dose on Day 8, the rats were humanely euthanized and the rats' vaginas and the distal portions of the rats' uterine horns were fixed and processed for histology and computer-aided morphometry.

[2] = Solubility of progesterone in solvent (concentration for clear solution); type: physicochemical
Description: Without wishing to be bound by any particular theory, it is believed that the compositions and methods described herein address the problems associated with known steroid hormone formulations such as poor solubility, poor bioavailability, and poor stability. More specifically, it has now been discovered that terpenes are unexpectedly effective in enhancing the solubility of insoluble steroid hormones such as progesterone and likewise act as excellent penetration enhancers for these same compounds. […] The compositions can also have any combination of enhanced dissolution rates, penetration capabilities, absorption, and bioavailability.

[3] = estradiol-treated ovariectomized rats, progesterone SC or transdermally

| SMILES | Endometrial Gland Density, LSMean ([1]; ovariectomized rats) | Endometrial Gland Size, LSMean ([1]; ovariectomized rats) | Endometrial Height, LSMean ([1]; ovariectomized rats) | Luminal Epithelial Cell Height, LSMean ([1]; ovariectomized rats) | Number of Mitotic Figures, LSMean ([1]; ovariectomized rats) | effect on the uterus (organ weight measurements and histology) ([1]; unopposed estradiol treatment, ovariectomized rats) | Concentration of Progesterone (mg/g) for clear solution ([2]; solvent Absolute Ethanol) | Concentration of Progesterone (mg/g) for clear solution ([2]; solvent d-Limonene) | uterine weight ([1]; estradiol-treated ovariectomized rats receiving progesterone SC or transdermally, FIGS. 5 and 6) | endometrial gland density compared to unopposed estradiol [1, 3] | luminal epithelial cell height compared to unopposed estradiol [1, 3] | estrogen-specific cellular aspects in the uterus and vagina ([1]; histology, estradiol-treated ovariectomized rats receiving progesterone SC or transdermally) |
| --- | --- | --- | --- | --- | --- | --- | --- | --- | --- | --- | --- | --- |
| C[C@]12CC[C@@H]3c4ccc(O)cc4CC[C@H]3[C@@H]1CC[C@@H]2O [EST, (17β)-estra-1,3,5(10)-triene-3,17-diol] | 7.09^b cells/mm^2 | 4540^b μm^2 | 418^b μm | 47.8^b μm | 921^b | hypertrophy | – | – | – | – | – | – |
| CC(=O)[C@H]1CC[C@H]2[C@@H]3CCC4=CC(=O)CC[C@]4(C)[C@H]3CC[C@]12C [Progesterone, pregn-4-ene-3,20-dione] | 10.3^b,d cells/mm^2 | 4390^b μm^2 | 436^b μm | 31.91^b,d μm | 595^b,d | – | 57 mg/g | 204.0 mg/g | Significantly reduced | significant increase | significant reduction | not detected |
